Source: patent US10626144B2, “Peptide derivatives and uses thereof” (Nosopharm, priority 2014, dated 2020)
Square brackets hold non-standard residues; d marks the D form. Peptide text beside a SMILES is read from it. * marks the point of attachment. Phe(4-CONH2) = NC(=O)c1ccc(C[C@H](N)C(=O)O)cc1; Phe(4-NH2) = Nc1ccc(C[C@H](N)C(=O)O)cc1; Phe(4-F) = N[C@@H](Cc1ccc(F)cc1)C(=O)O; Phe(4-Me) = Cc1ccc(C[C@H](N)C(=O)O)cc1; Dab(3S-OH) = NC[C@H](O)[C@H](N)C(=O)O; 2Pal = N[C@@H](Cc1ccccn1)C(=O)O; 3Pal = N[C@@H](Cc1cccnc1)C(=O)O; 4Pal = N[C@@H](Cc1ccncc1)C(=O)O; ΔZArg = N=C(N)NCC/C=C(\N)C(=O)O; Cit = NC(=O)NCCC[C@H](N)C(=O)O; aThr = C[C@H](O)[C@H](N)C(=O)O; AllylGly = C=CC[C@H](N)C(=O)O; NMeK = CN[C@@H](CCCCN)C(=O)O; hLys = NCCCCC[C@H](N)C(=O)O; dOrn = NCCC[C@@H](N)C(=O)O; NH(CH2)4NH2 = NCCCCN*

Experiments:
Experiment in all cases: MIC, broth microdilution (CLSI), reference strain
Settings in all cases: CAMHB
[1] = tested on: Staphylococcus aureus ATCC 13709
[2] = tested on: Acinetobacter baumannii ATCC 19606
[3] = tested on: Pseudomonas aeruginosa ATCC 27853
[4] = tested on: Escherichia coli ATCC 25922

Row | Compound | Sa: MIC Staphylococcus aureus ATCC 13709 [1] | Ab: MIC Acinetobacter baumannii ATCC 19606 [2] | Pa: MIC Pseudomonas aeruginosa ATCC 27853 [3] | Ec: MIC Escherichia coli ATCC 25922 [4]
1 | C[C@H](NC(=O)[C@@H](NC(=O)[C@@H](N)CCCCN)[C@@H](O)CN)C(=O)NCC(=O)N[C@H](CCCN)C(=O)N1CCC[C@H]1C(=O)N[C@@H](Cc1ccc(C(N)=O)cc1)C(=O)N[C@@H](CCCCN)C(=O)N/C(=C\CCNC(=N)N)C(=O)O [24.101] (H-K[Dab(3S-OH)]AG[dOrn]P[Phe(4-CONH2)]K[ΔZArg]-OH) | ++ (≤8 μg/mL) | − (>32 μg/mL) | − (>32 μg/mL) | + (≤32 μg/mL)
2 | C[C@H](NC(=O)[C@@H](NC(=O)[C@@H](N)CCCCN)[C@@H](O)CN)C(=O)NCC(=O)N[C@H](CCCN)C(=O)N1CCC[C@H]1C(=O)N[C@@H](Cc1ccc(F)cc1)C(=O)N[C@@H](CCCCN)C(=O)N/C(=C\CCNC(=N)N)C(=O)O [24.102] (H-K[Dab(3S-OH)]AG[dOrn]P[Phe(4-F)]K[ΔZArg]-OH) | ++ (≤8 μg/mL) | − (>32 μg/mL) | − (>32 μg/mL) | + (≤32 μg/mL)
3 | Cc1ccc(C[C@H](NC(=O)[C@@H]2CCCN2C(=O)[C@@H](CCCN)NC(=O)CNC(=O)[C@H](C)NC(=O)[C@@H](NC(=O)[C@@H](N)CCCCN)[C@@H](O)CN)C(=O)N[C@@H](CCCCN)C(=O)N/C(=C\CCNC(=N)N)C(=O)O)cc1 [24.104] (H-K[Dab(3S-OH)]AG[dOrn]P[Phe(4-Me)]K[ΔZArg]-OH) | ++ (≤8 μg/mL) | − (>32 μg/mL) | − (>32 μg/mL) | + (≤32 μg/mL)
4 | C[C@H](NC(=O)[C@@H](NC(=O)[C@@H](N)CCCCN)[C@@H](O)CN)C(=O)NCC(=O)N[C@H](CCCN)C(=O)N1CCC[C@H]1C(=O)N[C@@H](Cc1ccc(N)cc1)C(=O)N[C@@H](CCCCN)C(=O)N/C(=C\CCNC(=N)N)C(=O)O [24.105] (H-K[Dab(3S-OH)]AG[dOrn]P[Phe(4-NH2)]K[ΔZArg]-OH) | + (≤32 μg/mL) | − (>32 μg/mL) | − (>32 μg/mL) | + (≤32 μg/mL)
5 | C[C@H](NC(=O)[C@@H](NC(=O)[C@@H](N)CCCCN)[C@@H](O)CN)C(=O)NCC(=O)N[C@H](CCCN)C(=O)N1CCC[C@H]1C(=O)N[C@@H](Cc1ccccn1)C(=O)N[C@@H](CCCCN)C(=O)N/C(=C\CCNC(=N)N)C(=O)O [24.106] (H-K[Dab(3S-OH)]AG[dOrn]P[2Pal]K[ΔZArg]-OH) | + (≤32 μg/mL) | − (>32 μg/mL) | − (>32 μg/mL) | + (≤32 μg/mL)
6 | C[C@H](NC(=O)[C@@H](NC(=O)[C@@H](N)CCCCN)[C@@H](O)CN)C(=O)NCC(=O)N[C@H](CCCN)C(=O)N1CCC[C@H]1C(=O)N[C@@H](Cc1cccnc1)C(=O)N[C@@H](CCCCN)C(=O)N/C(=C\CCNC(=N)N)C(=O)O [24.107] (H-K[Dab(3S-OH)]AG[dOrn]P[3Pal]K[ΔZArg]-OH) | + (≤32 μg/mL) | − (>32 μg/mL) | − (>32 μg/mL) | + (≤32 μg/mL)
7 | C[C@H](NC(=O)[C@@H](NC(=O)[C@@H](N)CCCCN)[C@@H](O)CN)C(=O)NCC(=O)N[C@H](CCCN)C(=O)N1CCC[C@H]1C(=O)N[C@@H](Cc1ccncc1)C(=O)N[C@@H](CCCCN)C(=O)N/C(=C\CCNC(=N)N)C(=O)O [24.108] (H-K[Dab(3S-OH)]AG[dOrn]P[4Pal]K[ΔZArg]-OH) | + (≤32 μg/mL) | − (>32 μg/mL) | − (>32 μg/mL) | − (>32 μg/mL)
8 | C[C@H](NC(=O)[C@@H](NC(=O)[C@@H](N)CCCCN)[C@@H](O)CN)C(=O)NCC(=O)N[C@H](CCCN)C(=O)N1CCC[C@H]1C(=O)N[C@H](C(=O)N[C@@H](CCCCN)C(=O)N/C(=C\CCNC(=N)N)C(=O)O)[C@H](C)O [24.110] (H-K[Dab(3S-OH)]AG[dOrn]P[aThr]K[ΔZArg]-OH) | + (≤32 μg/mL) | − (>32 μg/mL) | − (>32 μg/mL) | − (>32 μg/mL)
9 | C=CC[C@H](NC(=O)[C@@H]1CCCN1C(=O)[C@@H](CCCN)NC(=O)CNC(=O)[C@H](C)NC(=O)[C@@H](NC(=O)[C@@H](N)CCCCN)[C@@H](O)CN)C(=O)N[C@@H](CCCCN)C(=O)N/C(=C\CCNC(=N)N)C(=O)O [24.111] (H-K[Dab(3S-OH)]AG[dOrn]P[AllylGly]K[ΔZArg]-OH) | ++ (≤8 μg/mL) | − (>32 μg/mL) | − (>32 μg/mL) | + (≤32 μg/mL)
10 | C[C@H](NC(=O)[C@@H](NC(=O)[C@@H](N)CCCCN)[C@@H](O)CN)C(=O)NCC(=O)N[C@H](CCCN)C(=O)N1CCC[C@H]1C(=O)N[C@@H](CCCNC(N)=O)C(=O)N[C@@H](CCCCN)C(=O)N/C(=C\CCNC(=N)N)C(=O)O [24.116] (H-K[Dab(3S-OH)]AG[dOrn]P[Cit]K[ΔZArg]-OH) | + (≤32 μg/mL) | − (>32 μg/mL) | − (>32 μg/mL) | − (>32 μg/mL)
11 | C[C@H](NC(=O)[C@@H](NC(=O)[C@@H](N)CCCCN)[C@@H](O)CN)C(=O)NCC(=O)N[C@H](CCCN)C(=O)N1CCC[C@H]1C(=O)N[C@@H](CCC(N)=O)C(=O)N[C@@H](CCCCN)C(=O)N/C(=C\CCNC(=N)N)C(=O)O [24.117] (H-K[Dab(3S-OH)]AG[dOrn]PQK[ΔZArg]-OH) | + (≤32 μg/mL) | − (>32 μg/mL) | − (>32 μg/mL) | − (>32 μg/mL)
12 | C[C@H](NC(=O)[C@@H](NC(=O)[C@@H](N)CCCCN)[C@@H](O)CN)C(=O)NCC(=O)N[C@H](CCCN)C(=O)N1CCC[C@H]1C(=O)N[C@@H](CCC(=O)O)C(=O)N[C@@H](CCCCN)C(=O)N/C(=C\CCNC(=N)N)C(=O)N[C@@H](CCCCN)C(=O)NCCCCN [24.118] (H-K[Dab(3S-OH)]AG[dOrn]PEK[ΔZArg]K-{NH(CH2)4NH2}) | ++ (≤8 μg/mL) | − (>32 μg/mL) | − (>32 μg/mL) | − (>32 μg/mL)
13 | COC(=O)CC[C@H](NC(=O)[C@@H]1CCCN1C(=O)[C@@H](CCCN)NC(=O)CNC(=O)[C@H](C)NC(=O)[C@@H](NC(=O)[C@@H](N)CCCCN)[C@@H](O)CN)C(=O)N[C@@H](CCCCN)C(=O)N/C(=C\CCNC(=N)N)C(=O)O [24.120] (H-K[Dab(3S-OH)]AG[dOrn]PE(OMe)K[ΔZArg]-OH) | − (>32 μg/mL) | − (>32 μg/mL) | − (>32 μg/mL) | + (≤32 μg/mL)
14 | C[C@H](NC(=O)[C@@H](NC(=O)[C@@H](N)CCCCN)[C@@H](O)CN)C(=O)NCC(=O)N[C@H](CCCN)C(=O)N1CCC[C@H]1C(=O)N[C@@H](Cc1cnc[nH]1)C(=O)N[C@@H](CCCCCN)C(=O)N[C@H](CCCNC(=N)N)C(N)=O [24.121] (H-K[Dab(3S-OH)]AG[dOrn]PH[hLys][dR]-NH2) | ++ (≤8 μg/mL) | − (>32 μg/mL) | − (>32 μg/mL) | − (>32 μg/mL)
15 | C[C@H](NC(=O)[C@@H](NC(=O)[C@@H](N)CCCCN)[C@@H](O)CN)C(=O)NCC(=O)N[C@H](CCCN)C(=O)N1CCC[C@H]1C(=O)N[C@@H](Cc1cnc[nH]1)C(=O)N[C@@H](CCCCN)C(=O)N[C@H](CCCNC(=N)N)C(=O)O [24.122] (H-K[Dab(3S-OH)]AG[dOrn]PHK[dR]-OH) | − (>32 μg/mL) | − (>32 μg/mL) | − (>32 μg/mL) | − (>32 μg/mL)
16 | CC[C@H](C)[C@H](NC(=O)/C(=C/CCNC(=N)N)NC(=O)[C@H](CCCCN)NC(=O)[C@H](Cc1cnc[nH]1)NC(=O)[C@@H]1CCCN1C(=O)[C@@H](CCCN)NC(=O)CNC(=O)[C@H](C)NC(=O)[C@@H](NC(=O)[C@@H](N)CCCCN)[C@@H](O)CN)C(=O)O [24.123] (H-K[Dab(3S-OH)]AG[dOrn]PHK[ΔZArg]I-OH) | + (≤32 μg/mL) | − (>32 μg/mL) | − (>32 μg/mL) | − (>32 μg/mL)
17 | CN[C@@H](CCCCN)C(=O)N[C@H](C(=O)N[C@@H](C)C(=O)NCC(=O)N[C@H](CCCN)C(=O)N1CCC[C@H]1C(=O)N[C@@H](Cc1cnc[nH]1)C(=O)N[C@@H](CCCCN)C(=O)N/C(=C\CCNC(=N)N)C(=O)O)[C@@H](O)CN [24.126] (H-[NMeK][Dab(3S-OH)]AG[dOrn]PHK[ΔZArg]-OH) | + (≤32 μg/mL) | − (>32 μg/mL) | − (>32 μg/mL) | + (≤32 μg/mL)
